8 compounds from patent US20250034139A1, “AMINE COMPOUNDS HAVING ANTI-INFLAMMATORY, ANTIFUNGAL, ANTIPARASITIC, AND ANTICANCER ACTIVITY” (PHARMA CINQ, LLC, priority 2013, published 2025) can be followed below.

Values after ≈ are worked out from the molar mass of the structure shown. Bounds are passed on as bounds.

The first assay deals with 4T1 murine breast cancer cells. The experiment in a line: Example S: in vitro anticancer screen, 4T1 cells, Wst1. The assay is classed as cell-based, mouse. Conditions: Mus musculus, 4T1, 18 h, 1 μM, 18 hr, Wst1; read-out: 4T1 1 μM, percent of cancer cell survival relative to vehicle treated cells. In a few lines: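 Read-out is Wst1 absorbance (450 nm, reference 630 nm) after roughly 2 hr dye incubation, giving percent cell survival versus vehicle. Before that, compounds at 1 μM or 5 μM were applied for 18 hr to 4T1 cells plated at 1×10^4 per well.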
For `CCCCCCOc1ccc(CNc2ccnc3ccccc23)cc1` [AA, N-[4-(Hexyloxy)benzyl]quinolin-4-amine], the viability at 1 µM worked out at 69.1%.
For the compound `c1ccc(Oc2cccc(CNc3ccnc4ccccc34)c2)cc1` [AF, N-(3-Phenoxybenzyl)quinolin-4-amine], the viability at 1 µM was found to be 24.7%.
Regarding `CCCCCCOCCCCCCCCn1cnc2cnccc21` [AS, 1-[8-(Hexyloxy)octyl]-1H-imidazo[4,5-c]pyridine], the viability at 1 µM turned out to be 94.6%.
In the case of `CCCCOCCCCCCCCCCn1cnc2cnccc21` [AT, 1-(10-Butoxydecyl)-1H-imidazo[4,5-c]pyridine], the viability at 1 µM is 31.7%.
For the compound `CCCCCCOCCCCCCCCNc1ccncn1` [AU, N-[8-(Hexyloxy)octyl]pyrimidin-4-amine], the viability at 1 µM came to 93%.
Same read-out and setting: in the case of `CCCCCCOCCCCCCCCNc1cc(C)nc2ccccc12` [AV, N-[8-(Hexyloxy)octyl]-2-methylquinolin-4-amine] it was 136%; in that of `CCCCCCOc1cccc(OCCCNc2ccnc3ccccc23)c1` [AZ, N-{3-[3-(Hexyloxy)phenoxy]propyl}quinolin-4-amine], 52.2%; in that of `Cc1cccc(OCCCCCCCCNc2ccnc3ccccc23)c1` [BE, N-[8-(m-Tolyloxy)octyl]quinolin-4-amine], 23.1%.

The assay is the same for the next values; noted with them: Mus musculus, 4T1, 18 h, 5 μM, 18 hr, Wst1; read-out: 4T1 5 μM, percent of cancer cell survival relative to vehicle treated cells.
Take `CCCCCCOc1ccc(CNc2ccnc3ccccc23)cc1` [AA, N-[4-(Hexyloxy)benzyl]quinolin-4-amine]: the viability at 5 µM was determined as 31.2%.
With `c1ccc(Oc2cccc(CNc3ccnc4ccccc34)c2)cc1` [AF, N-(3-Phenoxybenzyl)quinolin-4-amine], the viability at 5 µM is 25.6%.
For the compound `CCCCCCOCCCCCCCCn1cnc2cnccc21` [AS, 1-[8-(Hexyloxy)octyl]-1H-imidazo[4,5-c]pyridine], the viability at 5 µM came to 23.1%.
Take `CCCCOCCCCCCCCCCn1cnc2cnccc21` [AT, 1-(10-Butoxydecyl)-1H-imidazo[4,5-c]pyridine]: the viability at 5 µM worked out at 18.7%.
Turning to `CCCCCCOCCCCCCCCNc1ccncn1` [AU, N-[8-(Hexyloxy)octyl]pyrimidin-4-amine], the viability at 5 µM turned out to be 23.2%.
For the compound `CCCCCCOCCCCCCCCNc1cc(C)nc2ccccc12` [AV, N-[8-(Hexyloxy)octyl]-2-methylquinolin-4-amine], the viability at 5 µM turned out to be 30%.
As to `CCCCCCOc1cccc(OCCCNc2ccnc3ccccc23)c1` [AZ, N-{3-[3-(Hexyloxy)phenoxy]propyl}quinolin-4-amine], the viability at 5 µM is 29.1%.
As for `Cc1cccc(OCCCCCCCCNc2ccnc3ccccc23)c1` [BE, N-[8-(m-Tolyloxy)octyl]quinolin-4-amine], the viability at 5 µM came to 18.7%.

In the next assay the test system is PC3 human prostate cancer cells. The experiment in a line: Example S: in vitro anticancer screen, PC-3 cells, Wst1. It counts as cell-based. Conditions: Homo sapiens, PC-3; 0.4 μM, approximately 20 hours, Wst1; read-out: PC-3, percent of cancer cell survival relative to vehicle treated cells. In a few lines:
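Values give percent survival relative to vehicle, read by Wst1 absorbance (450/630 nm) after 2 h dye incubation, in triplicate. Cells were seeded at 2×10^4/well and treated about 20 h with compound at 0.4, 0.5 or 2.5 μM, depending on compound.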
In the case of `c1ccc(Oc2cccc(CNc3ccnc4ccccc34)c2)cc1` [AF, N-(3-Phenoxybenzyl)quinolin-4-amine], the viability at 0.4 µM is 19.1%.
With `CCCCOCCCCCCCCCCn1cnc2cnccc21` [AT, 1-(10-Butoxydecyl)-1H-imidazo[4,5-c]pyridine], the viability at 0.4 µM is 34.6%.
In the case of `CCCCCCOc1cccc(OCCCNc2ccnc3ccccc23)c1` [AZ, N-{3-[3-(Hexyloxy)phenoxy]propyl}quinolin-4-amine], the viability at 0.4 µM is 95.4%.
As for `Cc1cccc(OCCCCCCCCNc2ccnc3ccccc23)c1` [BE, N-[8-(m-Tolyloxy)octyl]quinolin-4-amine], the viability at 0.4 µM worked out at 99.1%.

Staying with this assay, now noted: Homo sapiens, PC-3; 1.5 μM, approximately 20 hours, Wst1; read-out: PC-3, percent of cancer cell survival relative to vehicle treated cells.
As to `CCCCCCOc1ccc(CNc2ccnc3ccccc23)cc1` [AA, N-[4-(Hexyloxy)benzyl]quinolin-4-amine], the viability at 1.5 µM is 82.6%.

The assay is the same for the next values; noted with them: Homo sapiens, PC-3; 2.5 μM, approximately 20 hours, Wst1; read-out: PC-3, percent of cancer cell survival relative to vehicle treated cells.
As for `CCCCCCOCCCCCCCCn1cnc2cnccc21` [AS, 1-[8-(Hexyloxy)octyl]-1H-imidazo[4,5-c]pyridine], the viability at 2.5 µM came to 31.1%.
Regarding `CCCCCCOCCCCCCCCNc1ccncn1` [AU, N-[8-(Hexyloxy)octyl]pyrimidin-4-amine], the viability at 2.5 µM was determined as 32.4%.
With `CCCCCCOCCCCCCCCNc1cc(C)nc2ccccc12` [AV, N-[8-(Hexyloxy)octyl]-2-methylquinolin-4-amine], the viability at 2.5 µM turned out to be 38.2%.

A further assay relates to Trichophyton rubrum. The experiment in a line: Example J: Trichophyton rubrum growth inhibition, scoring by eye. The assay is classed as cell-based. Conditions: Trichophyton rubrum, 144 h; 6 days at 30° C., tested 6 to 40 μM; read-out: MIC, μM (maximum inhibition concentration, scoring by eye). The method, boiled down: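 Filtered T. rubrum suspension from PDA plates (grown 4 days, 30 °C) treated with diluted compounds in triplicate, incubated 6 days at 30 °C. Plates imaged; MIC scored by eye.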
As for `c1ccc(Oc2cccc(CNc3ccnc4ccccc34)c2)cc1` [AF, N-(3-Phenoxybenzyl)quinolin-4-amine], the MIC is over 40 µM.
Consider `CCCCCCOCCCCCCCCn1cnc2cnccc21` [AS, 1-[8-(Hexyloxy)octyl]-1H-imidazo[4,5-c]pyridine], for which the MIC worked out at 25 µM (≈ 8.29 µg/mL).
Turning to `CCCCOCCCCCCCCCCn1cnc2cnccc21` [AT, 1-(10-Butoxydecyl)-1H-imidazo[4,5-c]pyridine], the MIC was 6 µM (≈ 1.99 µg/mL).
For the compound `CCCCCCOCCCCCCCCNc1ccncn1` [AU, N-[8-(Hexyloxy)octyl]pyrimidin-4-amine], the MIC was 12 µM (≈ 3.69 µg/mL).
`CCCCCCOCCCCCCCCNc1cc(C)nc2ccccc12` [AV, N-[8-(Hexyloxy)octyl]-2-methylquinolin-4-amine]: the MIC is 25 µM (≈ 9.26 µg/mL).
Regarding `CCCCCCOc1cccc(OCCCNc2ccnc3ccccc23)c1` [AZ, N-{3-[3-(Hexyloxy)phenoxy]propyl}quinolin-4-amine], the MIC turned out to be 18 µM (≈ 6.81 µg/mL).
Still for that read-out and setting: in the case of `Cc1cccc(OCCCCCCCCNc2ccnc3ccccc23)c1` [BE, N-[8-(m-Tolyloxy)octyl]quinolin-4-amine] it was 12 µM (≈ 4.35 µg/mL).

In a further assay the test system is THP-1 cells. The experiment in a line: Example C: compound screen, viable THP-1 cell count after 5 hours +/- LPS. It counts as cell-based, Human. Conditions: Compound (0.1 μM), No LPS. An excerpt:
Background: THP-1 is a human acute myeloid leukemia (AML) cell line that can be induced into a macrophage-like cell with vitamin-D3 (vit-D3). In the macrophage, LPS (lipopolysaccharide; endotoxin) stimulation of toll-like receptor 4 (TLR-4) leads to NF-κB activation and secretion of inflammatory cytokines but also the priming of programmed death pathways through RIP and Caspase 8. The balance of this complex regulatory network is dependent on highly specific kinases, enzymes that require ATP. Disruption of either cytosolic pH or ATP availability/energy level uncouples this control network and the can macrophage shift away from production of inflammatory cytokines towards a programmed death event, which has the net effect of limiting inflammatory damage.
In the case of `c1ccc(Oc2cccc(CNc3ccnc4ccccc34)c2)cc1` [AF, N-(3-Phenoxybenzyl)quinolin-4-amine], the “Reduction in viable THP-1 cell count (percent change) from 0 hours, Mean ± SE” value is −8.99 ± 2.00%.

Still in this assay, the particulars now being: Compound (0.1 μM), Plus LPS.
Turning to `c1ccc(Oc2cccc(CNc3ccnc4ccccc34)c2)cc1` [AF, N-(3-Phenoxybenzyl)quinolin-4-amine], the “Reduction in viable THP-1 cell count (percent change) from 0 hours, Mean ± SE” value is −27.32 ± 4.69%.

Staying with this assay, now noted: Compound (1.0 μM), No LPS.
For the compound `c1ccc(Oc2cccc(CNc3ccnc4ccccc34)c2)cc1` [AF, N-(3-Phenoxybenzyl)quinolin-4-amine], the “Reduction in viable THP-1 cell count (percent change) from 0 hours, Mean ± SE” value was −6.02 ± 2.31%.

Staying with this assay, now noted: Compound (1.0 μM), Plus LPS.
Consider `c1ccc(Oc2cccc(CNc3ccnc4ccccc34)c2)cc1` [AF, N-(3-Phenoxybenzyl)quinolin-4-amine], for which the “Reduction in viable THP-1 cell count (percent change) from 0 hours, Mean ± SE” value was −44.82 ± 2.46%.

The same assay, now with this note: LPS-treated THP-1 cells.
On to `c1ccc(Oc2cccc(CNc3ccnc4ccccc34)c2)cc1` [AF, N-(3-Phenoxybenzyl)quinolin-4-amine], for which the “ability to inactivate pro-inflammatory THP-1 cells, in words (relative to benchmark AC)” value is reported as “higher activity than the active benchmark compound AC”.

The test system of a further assay is THP-1 cells. The experiment in a line: Example D: LPS-triggered THP-1 cell death assay, acute/5-hour and chronic/48-hour. It counts as cell-based, Human. The note with it: 10 ng/ml LPS, 0.1 μM test compound, 48 hours. The protocol: Compounds of the invention were tested at 0.1 μM versus AC in the LPS-triggered THP-1 cell death assay. Both acute/5-hour and chronic/48-hour phases of cell death were assessed. Compounds were screened in batches with DMSO as the negative control and AC as the high activity control.
For `c1ccc(Oc2cccc(CNc3ccnc4ccccc34)c2)cc1` [AF, N-(3-Phenoxybenzyl)quinolin-4-amine], the “Viable cell percent change, Chronic/48-hour, Mean” value (from here on “Viable cell percent change”) is 13.79%.
`CCCCCCOCCCCCCCCn1cnc2cnccc21` [AS, 1-[8-(Hexyloxy)octyl]-1H-imidazo[4,5-c]pyridine]: the “Viable cell percent change” value turned out to be 3.86%.
On to `CCCCOCCCCCCCCCCn1cnc2cnccc21` [AT, 1-(10-Butoxydecyl)-1H-imidazo[4,5-c]pyridine], for which the “Viable cell percent change” value turned out to be 30.34%.
As to `CCCCCCOCCCCCCCCNc1ccncn1` [AU, N-[8-(Hexyloxy)octyl]pyrimidin-4-amine], the “Viable cell percent change” value stood at 16.86%.
Still for that read-out and setting: the same measure for `CCCCCCOCCCCCCCCNc1cc(C)nc2ccccc12` [AV, N-[8-(Hexyloxy)octyl]-2-methylquinolin-4-amine]: 38.76%; for `CCCCCCOc1cccc(OCCCNc2ccnc3ccccc23)c1` [AZ, N-{3-[3-(Hexyloxy)phenoxy]propyl}quinolin-4-amine]: 50.12%; for `Cc1cccc(OCCCCCCCCNc2ccnc3ccccc23)c1` [BE, N-[8-(m-Tolyloxy)octyl]quinolin-4-amine]: 33.86%.

Staying with this assay, now noted: 0.1 μM, 5-hour and 48-hour time points.
As to `c1ccc(Oc2cccc(CNc3ccnc4ccccc34)c2)cc1` [AF, N-(3-Phenoxybenzyl)quinolin-4-amine], the “activity relative to AC in the LPS-triggered THP-1 cell death assay, in words” value was “more active than AC at the chronic/48-hour time point”.
